Source: article PMC9817974, “Pharmacokinetic Basis for Using Saliva Matrine Concentrations as a Clinical Compliance Monitoring in Antitumor B Chemoprevention Trials in Humans” (Cancers, 2022)

Legend:
[1] = Sample stability of ATB components (bench, freeze-thaw, short-term, long-term); format: physicochemical; conditions: in % (unit assumed)
[2] = Single-dose oral pharmacokinetic study of ATB tablets in healthy human subjects (plasma and saliva, non-compartmental analysis); format: in vivo; conditions: after 2400 mg ATB oral administration; LLOQ of Dict […]
Description: In addition, in vivo correlation between plasma and saliva concentrations was determined as the secondary outcome.
The ratio of drug concentration in plasma and saliva were calculated using Equations (1) and (2). (1) RCmax=Cmax saliva/Cmax plasma (2) RAUC=AUC0–24 saliva/AUC0–24 plasma […]
S2.1. Human Pharmacokinetic Study Design
The study was conducted in two phases. Two self-volunteered subjects participated in the study […]
Participants refrained from consumption of […]
dosing blood and saliva samples were collected. Each participant received single-dose oral […]
saliva sample kit for salivary collection. Plasma samples were then collected by centrifugation of […]
hour post-administration. […]
administration. […] Throughout the […]
collected and saline lock was removed. Participants returned the next day morning for 24-hour […]
Participants fasted 8-12 hours before each

[3] = Stability of ATB tablets (ICH storage conditions); conditions: for remaining percentage in ATB tablets, Long term 3 months / remaining percentage in ATB tablets, Long term 6 months / remaining percentage in ATB tablets, Long term 12 months: 25 ± 2 °C/60 ± 5% RH
Description: Two independent batches of ATB tablets were tested according to International Conference on Harmonization (ICH) Guideline for long-term (12 months at 25 ± 2 °C/60 ± 5% RH), intermediate (6 months at 30 ± 2 °C/65 ± 5% RH), and accelerated (40 ± 2 °C/75 ± 5% RH) stability [12].

[4] = Sample stability of ATB components (bench, freeze-thaw, short-term, long-term); format: physicochemical; conditions: in % (unit assumed); remark: listed apart in the source
Description: samples for calibration were prepared. The study and QC samples were prepared on the same day as the UPLC-MS/MS analysis was done.
Calibration curves were prepared the same way as described in section S1.2.2. The linearity of each calibration curve was determined by plotting the peak area ratio of Matr, Maac, Dict, and Frax to I.S. in plasma. […] The lower limit of […] was defined based on a signal-to-noise ratio of 10:1.
S1.2.4 Extraction recovery and matrix effect
The extraction recoveries of Matr, Maac, Dict, and Frax were determined by comparing the relative peak areas obtained from blank plasma spiked with analytes and those obtained from water spiked with the same amounts of analytes. Matrix effect was determined by comparing the peak areas of blank plasma extracts spikes with analytes and I.S. with those of the standard solutions dried and reconstituted with mobile phase. The quality control samples were prepared in plasma.
Bench work (25°C for 4 hours), short-term (-20°C for 7 days), long-term (-80°C for 4 months) and three freeze-thaw cycle stabilities were determined.

For `Oc1ccc2c(c1)OC[C@H]1c3cc4c(cc3O[C@@H]21)OCO4` [Maac, maackiain], the “Stability, Long-term (6 months, -80 oC)” value ([1]; HQC concentration level) was 92.3 ± 5.7, the “Stability, Bench work (4 hrs, 25 oC)” value ([1]; LOQ concentration level) was 93.8 ± 11.6 and the “Stability, Long-term (6 months, -80 oC)” value ([1]; LOQ concentration level) was 87.0 ± 5.1. For the same compound, the “Stability, Short-term (7 days, -20 oC)” value ([1]; LOQ concentration level) was 99.6 ± 1.4, the “Stability, Long-term (6 months, -80 oC)” value ([1]; MQC concentration level) was 85.5 ± 0.4 and the “Stability, Short-term (7 days, -20 oC)” value ([1]; MQC concentration level) was 89.1 ± 11.0. The “detection in plasma and saliva samples” value [2] was “detected in 30 min plasma sample of only one participant”, the “remaining percentage in ATB tablets, Long term 3 months” value [3] was 81.1 ± 5.3% and the “remaining percentage in ATB tablets, Long term 6 months” value [3] was 101.6±0.2%. The “remaining percentage in ATB tablets, Long term 12 months” value [3] was 89.1 ± 4.2%, the “Stability, 3 cycles freeze-thaw” value ([4]; HQC concentration level) was 114.7 ± 2.8 and the “Stability, Bench work (4 hrs, 25 oC)” value ([4]; HQC concentration level) was 108.7 ± 8.1. The “Stability, Short-term (7 days, -20 oC)” value ([4]; HQC concentration level) was 91.2 ± 8.0, the “Stability, 3 cycles freeze-thaw” value ([4]; LOQ concentration level) was 113.3 ± 6.4 and the “Stability, 3 cycles freeze-thaw” value ([4]; MQC concentration level) was 114.6 ± 3.2. For the same compound, the “Stability, Bench work (4 hrs, 25 oC)” value ([4]; MQC concentration level) was 109.1 ± 5.9.
With `CC1=C2C(=O)O[C@@H](c3ccoc3)[C@]2(C)CCC1` [Frax, fraxinellone] the “Stability, Long-term (6 months, -80 oC)” value ([1]; HQC concentration level) was 94.8 ± 0.4, the “Stability, Bench work (4 hrs, 25 oC)” value ([1]; LOQ concentration level) was 108.5 ± 5.0 and the “Stability, Long-term (6 months, -80 oC)” value ([1]; LOQ concentration level) was 85.7 ± 3.6. For the same compound, the “Stability, Short-term (7 days, -20 oC)” value ([1]; LOQ concentration level) was 89.6 ± 0.5, the “Stability, Long-term (6 months, -80 oC)” value ([1]; MQC concentration level) was 90.1 ± 5.6 and the “Stability, Short-term (7 days, -20 oC)” value ([1]; MQC concentration level) was 96.6 ± 5.8. For the same compound, the “detection in plasma and saliva samples” value [2] was “not detected in any study sample”, the “remaining percentage in ATB tablets, Long term 3 months” value [3] was 92.4 ± 6.4% and the “remaining percentage in ATB tablets, Long term 6 months” value [3] was 81.2 ± 10.1%. For the same compound, the “remaining percentage in ATB tablets, Long term 12 months” value [3] was 93.8 ± 1.0%, the “remaining percentage in ATB tablets, Intermediate 3 months” value ([3]; 30 ± 2 °C/65 ± 5% RH) was 112.5 ± 7.2% and the “remaining percentage in ATB tablets, Intermediate 6 months” value ([3]; 30 ± 2 °C/65 ± 5% RH) was 113.1 ± 7.2%. The “remaining percentage in ATB tablets, Accelerated term 3 months” value ([3]; 40 ± 2 °C/75 ± 5% RH) was 84.3 ± 13.2%, the “remaining percentage in ATB tablets, Accelerated term 6 months” value ([3]; 40 ± 2 °C/75 ± 5% RH) was 115.8 ± 1.5% and the “Stability, 3 cycles freeze-thaw” value ([4]; HQC concentration level) was 98.9 ± 2.2. For the same compound, the “Stability, Bench work (4 hrs, 25 oC)” value ([4]; HQC concentration level) was 89.1 ± 9.9, the “Stability, Short-term (7 days, -20 oC)” value ([4]; HQC concentration level) was 99.1 ± 8.0 and the “Stability, 3 cycles freeze-thaw” value ([4]; LOQ concentration level) was 105.7 ± 3.2. The “Stability, 3 cycles freeze-thaw” value ([4]; MQC concentration level) was 104.0 ± 1.3 and the “Stability, Bench work (4 hrs, 25 oC)” value ([4]; MQC concentration level) was 90.5 ± 8.0.
